# Laboratory results as given in patent publication US20150087682A1, “Method for Treating Scleroderma” (The Regents of the University of Colorado, A body corporate, priority 2012, published 2015).
# Target: TLR4 (Homo sapiens, UniProt O00206)
# Assay: Inhibition of the TLR4 signaling pathway / TLR4 binding
# Procedure: These compounds were evaluated for inhibition of the TLR4 signaling pathway in vitro and in vivo.
# TLR4, sequence (O00206 24-839, species assumed): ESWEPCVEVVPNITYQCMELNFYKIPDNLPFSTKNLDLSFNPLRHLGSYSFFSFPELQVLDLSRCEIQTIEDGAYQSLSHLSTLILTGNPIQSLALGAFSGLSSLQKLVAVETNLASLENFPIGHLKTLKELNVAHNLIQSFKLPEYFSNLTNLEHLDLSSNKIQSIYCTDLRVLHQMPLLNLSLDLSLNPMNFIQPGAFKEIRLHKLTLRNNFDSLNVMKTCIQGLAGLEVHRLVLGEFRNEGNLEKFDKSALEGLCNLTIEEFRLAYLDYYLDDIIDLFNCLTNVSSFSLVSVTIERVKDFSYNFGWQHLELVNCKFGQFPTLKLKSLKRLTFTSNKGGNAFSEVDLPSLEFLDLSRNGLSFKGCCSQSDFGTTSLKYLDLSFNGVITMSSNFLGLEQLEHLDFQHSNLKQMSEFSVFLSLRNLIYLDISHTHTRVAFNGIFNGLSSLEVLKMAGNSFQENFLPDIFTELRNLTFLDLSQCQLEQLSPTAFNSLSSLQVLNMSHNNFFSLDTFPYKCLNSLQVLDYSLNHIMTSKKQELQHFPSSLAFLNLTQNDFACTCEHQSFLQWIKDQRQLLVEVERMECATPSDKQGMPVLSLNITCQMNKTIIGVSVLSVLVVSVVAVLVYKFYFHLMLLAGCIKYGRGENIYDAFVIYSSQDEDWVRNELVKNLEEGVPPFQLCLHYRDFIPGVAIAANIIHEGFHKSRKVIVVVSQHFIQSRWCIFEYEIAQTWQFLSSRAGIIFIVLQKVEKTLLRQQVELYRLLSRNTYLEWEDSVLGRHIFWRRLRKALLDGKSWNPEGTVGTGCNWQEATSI
smiles,measurement,value
"CCOc1ccc(OCC(O)CN(C)Cc2c(C)nn(Cc3ccccc3Cl)c2C)cc1 (stereo not shown) [Compound A-1, 1-(((1-(2-chlorobenzyl)-3,5-dimethyl-1H-pyrazol-4-yl)methyl)(methyl)amino)-3-(4-ethoxyphenoxy)propan-2-ol]",TLR4 binding,substantially inhibited TLR4 binding
